Results on one molecule are retold here after patent publication US5750521A, “Mercaptoacetylamide disulfide derivatives useful as inhibitors of enkephalinase and ACE” (Hoechst Marion Roussel Inc., priority 1996, dated 1998).

This experiment has as its target T1, ACE, rat kidney preparations (Rattus norvegicus, UniProt P47820).
T1 construct: compound- or vehicle-dosed rat kidney preparations; from tissue; host or cells: kidney of male Sprague-Dawley rats
T1 sequence (P47820 36-1313): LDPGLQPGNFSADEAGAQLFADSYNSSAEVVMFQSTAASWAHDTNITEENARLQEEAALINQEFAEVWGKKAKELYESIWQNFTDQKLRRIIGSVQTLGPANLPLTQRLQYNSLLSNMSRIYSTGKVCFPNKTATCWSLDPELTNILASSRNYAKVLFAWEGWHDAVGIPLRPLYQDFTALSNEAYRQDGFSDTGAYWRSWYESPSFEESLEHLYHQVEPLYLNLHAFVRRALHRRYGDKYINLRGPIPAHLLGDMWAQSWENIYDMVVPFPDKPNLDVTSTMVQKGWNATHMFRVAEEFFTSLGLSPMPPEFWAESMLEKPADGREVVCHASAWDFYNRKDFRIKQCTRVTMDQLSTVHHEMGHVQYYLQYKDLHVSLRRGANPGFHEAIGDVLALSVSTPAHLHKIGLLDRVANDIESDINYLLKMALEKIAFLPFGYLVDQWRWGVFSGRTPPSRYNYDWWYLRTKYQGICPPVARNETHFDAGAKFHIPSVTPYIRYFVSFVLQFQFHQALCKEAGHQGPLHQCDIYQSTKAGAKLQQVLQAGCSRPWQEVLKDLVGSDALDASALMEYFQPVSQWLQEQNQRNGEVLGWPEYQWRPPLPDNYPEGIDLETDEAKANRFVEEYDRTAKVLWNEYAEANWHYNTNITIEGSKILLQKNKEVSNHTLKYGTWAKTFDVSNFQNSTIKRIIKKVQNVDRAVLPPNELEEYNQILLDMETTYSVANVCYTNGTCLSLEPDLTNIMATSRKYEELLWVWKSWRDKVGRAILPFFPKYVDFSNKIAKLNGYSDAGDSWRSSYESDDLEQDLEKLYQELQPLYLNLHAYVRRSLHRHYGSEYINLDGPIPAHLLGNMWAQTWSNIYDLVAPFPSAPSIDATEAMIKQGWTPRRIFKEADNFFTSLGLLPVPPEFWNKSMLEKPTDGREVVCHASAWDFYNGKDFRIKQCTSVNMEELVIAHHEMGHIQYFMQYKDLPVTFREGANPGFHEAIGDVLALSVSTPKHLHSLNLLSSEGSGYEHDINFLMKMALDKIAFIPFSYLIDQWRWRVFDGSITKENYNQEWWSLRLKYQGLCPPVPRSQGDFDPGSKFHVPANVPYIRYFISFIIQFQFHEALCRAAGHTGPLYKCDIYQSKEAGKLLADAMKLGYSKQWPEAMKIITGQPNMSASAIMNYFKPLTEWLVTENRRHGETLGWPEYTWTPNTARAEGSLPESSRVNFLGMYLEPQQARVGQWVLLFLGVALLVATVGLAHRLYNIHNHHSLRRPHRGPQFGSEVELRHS
The experiment can be described thus: radiometric ACE assay with tritiated hippuryl-glycyl-glycine. The experiment is classed as biochemical. To be noted: 1 μM enalaprilat; compound- or vehicle-dosed rat kidney preparations.

Consider `C[C@H](N[C@@H](CCc1ccccc1)C(=O)O)C(=O)N1CCC[C@H]1C(=O)O` [enalaprilat], for which the “inhibition of radioactive product formation” value is recorded as “Complete inhibition”.
